{"source": "patent US20220162257A1", "about": "“3ALPHA, 5BETA-NEUROACTIVE STEROIDS FOR THE TREATMENT OF EPILEPSY AND SEIZURE DISEASES” (USTAV ORGANICKE CHEMIE A BIOCHEMIE AV CR, V. V. I., priority 2019, published 2022)", "key": {"[1]": {"tested_on": "PTZ-induced seizures in zebrafish (Danio rerio)", "test": "pentetrazol (PTZ)-induced seizures in zebrafish larvae", "format": "in vivo", "conditions": "7 dpf larvae, PTZ 5 mmol/L", "procedure": "Adults wild-type (strain AB) zebrafish (Danio rerio) were maintained at 28-29° C. on a light cycle of 14 h light:10h dark (lights on at 7 am; lights off at 9 pm) at ZeClinics animal facility (Barcelona). All procedures involving animals and their care were conducted accordingly to CEA-OH/9421/2 authorization from Government of Catalonia. Embryos obtained by pairwise mating were raised in E3 media at the controlled temperature of 28.5° C. until 7 days post-fertilization (dpf) when the experiments were performed.\nThe anticonvulsant activity of the claimed compounds on the nervous system of zebrafish (Danio rerio). This test is the modern alternative to tests in adult animals as Danio rerio is very versatile organism that has a number of physiological similarities to mammals, including humans (Expert Opin. Drug Metab. Toxicol. 2009, 5, 393). Steroidal compounds were tested in three concentrations (1, 3 and 5 μmol.L^−1) on 7 days post-fertilization (dpf) wild-type larvae. As a negative control, sibling larvae were incubated with DMSO 1%, which allows us to detect behavioral alterations of PTZ treated larvae. Seizures were induced by treatment of pentetrazol (PTZ) at the dose 5 mmol.L^−1. Commercially available anti-convulsant drug Topiramate was used as comparator. Results were analyzed with GraphPad Prism software and statistical significance is assessed by the One-way ANOVA statistical analysis followed by Tukey's multiple comparisons test. The zebrafish larvae locomotion and response to visual stimuli are traced and analyzed by the EthoVision XT 12 software and the DanioVision device from Noldus Information Technologies, Wageningen, The Netherlands.\nThis closed system consists of a camera placed above a chamber with circulating water and a temperature sensor that is set at 28° C. Individualized larvae in a 48-wells plate are placed in the chamber, which can provide different stimuli (light/dark environment, tapping, sound) controlled by the software. Prior to each experiment, larvae were left for 10 minutes in dark for acclimation, then predetermined series of alternating dark and light environment are presented to the larvae. The final experimental protocol is divided in three main part: first a 15 minutes step with light on, then a series of 5 short flashes of light to induce epileptic seizures and finally a 25 minutes dark/light alternating environments phase. Different sets of information can be extrapolated from the different phases: while the first step is useful to detect changes in the total larvae locomotion, the second part allows us to analyze the larval response to a seizure-inducing visual stimulus and measure the seizure characteristics: the maximum velocity and the number of angles turns (specific of seizure erratic movement). The final phase is useful to detect anomalies in larval movement and deviations from the stereotyped behavior (natural locomotor behavior of zebrafish is active in dark and immobile in light). The anticonvulsant effect of compounds was studied at doses of […] for the compound shown in Example 1, Example 2 and Example 3."}, "[2]": {"tested_on": "seizures elicited by 6 Hz stimulation in rats", "test": "6 Hz transcorneal electrical stimulation seizure model in rats", "format": "in vivo, rat", "procedure": "(§1) Anticonvulsant effect of compounds was evaluated in two models of epileptic seizures in immature rats (PTZ model and 6 Hz model). PTZ convulsions were tested in 12- and 25-day-old rats, 6 Hz-induced seizures in 15- and 25-day-old rats. Young adult rats (P60) were also used in either test. Day of birth was taken as P0. Experiments evaluating precognitive effect were performed in adult male rats of the Wistar and Long Evans strain (3 months old, b.w. 300-400 g). All animals were obtained from a breeding facility of Institute of Physiology CAS (certificate No. 1396/2014-MZE-17214) Animals were held in standard conditions (21±1° C., humidity 50-60%, light regime 12/12) with unrestricted access to food and water. All manipulations with animals were performed according to the https://nc3rs.org.uk/arrive-guidelines and to Czech Animal Protection Law 246/1992 Sb. And international directives (EU Directive 2010/63/EU for animals' experiments).\nTwo age groups of immature male Wistar rats were used in either experiment. In PTZ model P12 corresponding by a maturation of the brain to early postnatal human babies, i.e. to the period where children epileptic encephalopathy mostly resistant to present pharmacotherapy start to appear. The other group—P25 animals corresponds with school-age children. Generalized tonic-clonic seizures were elicited by a subcutaneous injection of PTZ in a dose of 100 mg/kg. The 6 Hz model was tested in P15 (at this age eyes are open and it is not necessary to surgically distract lids). Biphasic pulses with […] were applied transcorneally for 3 s by a constant current stimulator of Ugo Basile company. PTZ induced generalized seizures represent a model of human generalized tonic-clonic seizures, seizures elicited by 6 Hz stimulation are generally taken as a model of temporal (psychomotor, complex partial) seizures. Differences in latencies and seizure severity were evaluated by ANOVA with a subsequent pairwise comparison by Holm-Sidak test. Incidence of seizures were evaluated by Fischer exact test. Critical p value was set at p=0.05.\nYounger group was formed by 15-day-old animals—the animals at this age have open eyes and it is not necessary to distract eyelids surgically. The other group was 25 days old. Sensitivity of these two age groups is different, therefore we used current intensities of 40, 60, and 80 mA in 15-day-old rats and 20, 40, and 60 mA in the 25-day-old animals. Stimulations were made in 20-min intervals, 10 min before each stimulation a drop of mesocaine into either eye was used as a local anesthetic. Steroid derivatives in a dose of 10 mg/kg i.p. were administered 20 min before the first stimulation. Seizures elicited by 60-mA intensity of stimulation current were suppressed, those elicited by 80 mA not."}, "[3]": {"tested_on": "generalized tonic-clonic seizures in adult rats", "test": "seizures in young adult (P60) rats, FIGS. 6A-6C", "format": "in vivo, rat", "procedure": "FIGS. 6A-6C show anticonvulsant effect of a substance from Example 1 in a model of seizures elicited by 6 Hz transcorneal electrical stimulation in young adult (P60) male rats. Steroid substance in dose 1, 5, or 10 mg/kg i.p. (x-axis) was administered 20 min before the first stimulation. Graph 6A (y-axis in %)—incidence of complete (GTCS) and incomplete, i.e. without the tonic phase (GCS) generalized seizures; graph 6B (y-axis in %)—incidence of minimal clonic seizures; graph 6C (y-axis in s)—latencies of generalized seizures.\nas §1\nGTCS were present in only one rat after the 10-mg/kg dose."}}, "data": [{"smiles": "CC(=O)[C@H]1CC[C@H]2[C@@H]3CC[C@@H]4C[C@H](OC(=O)C5CCC(=O)N5)CC[C@]4(C)[C@H]3CC[C@]12C", "note": "(stereo partly drawn) [Example 1, (3R,5R,8R,9S,10S,13S,14S,17S)-17-Acetyl-10,13-dimethylhexadecahydro-1H-cyclopenta[a]fenantren-3-yl 5-oxopyrrolidine-2-carboxylate]", "values": [{"measurement": "epileptiform locomotor activity in the dark phase/light test, sedation", "setting": "[1]; doses of 1, 3 and 5 mg/kg", "value": "decreased epileptiform locomotor activity in the dark phase/light test without causing sedation"}, {"measurement": "locomotor activity epileptiform induced by PTZ (spontaneous locomotor activity, maximum velocity, angle turns)", "setting": "[1]; doses of 1, 3 and 5 mg/kg (1, 3 and 5 μmol/L in the source)", "value": "significantly reduced the locomotor activity epileptiform induced by PTZ"}, {"measurement": "seizure severity", "setting": "[2]; P15 rats, 10 mg/kg i.p.", "value": "not affected"}, {"measurement": "duration of seizures", "setting": "[2]; P15 rats, 60 and 80 mA, 10 mg/kg i.p.", "value": "significantly shortened at both current intensities"}, {"measurement": "incidence of seizures", "setting": "[2]; P15 rats, 60 mA, 10 mg/kg i.p.", "value": "suppressed"}, {"measurement": "incidence of seizures (suppressed or not)", "setting": "[2]; P15 rats, 80 mA, 10 mg/kg i.p.", "value": "not"}, {"measurement": "duration of seizures", "setting": "[2]; P25 rats, 10 mg/kg i.p.", "value": "significantly shorter"}, {"measurement": "incidence of seizures", "setting": "[2]; P25 rats, 10 mg/kg i.p.", "value": "tendency to a decreased incidence of seizures"}, {"measurement": "seizure intensity (severity)", "setting": "[2]; P25 rats, 10 mg/kg i.p.", "value": "lower intensity"}, {"measurement": "changes of the threshold intensity", "setting": "[2]; adult (P60) rats, 1, 5, 10 mg/kg i.p., tendency after 10 mg/kg", "value": "did not reach the level of significance"}, {"measurement": "latency to GTCS", "setting": "[3]; 5 mg/kg i.p.", "value": "significantly decreased"}, {"measurement": "animals with GTCS", "setting": "[3]; 10 mg/kg i.p.", "value": "only one rat"}, {"measurement": "incidence of generalized tonic-clonic seizures (GTCS)", "setting": "[3]; 10 mg/kg i.p.", "value": "significantly decreased the incidence"}, {"measurement": "minimal clonic seizures", "setting": "[3]; 10 mg/kg i.p.", "value": "remained unaffected"}, {"measurement": "seizure severity", "setting": "[3]; 5 and 10 mg/kg i.p.", "value": "significantly decreased"}]}]}
